In article PMC12257413, “Discovery of a Novel sp^3‑Rich M1 Positive Allosteric Modulators (PAMs) Chemotype via Scaffold Hopping” (ACS Medicinal Chemistry Letters, 2025):
Converted amounts (≈) assume the structure as drawn. Like-named read-outs stand apart in the source and are kept apart here.

Key:
[1] = Plasma protein binding by equilibrium dialysis, rat plasma; type: in vitro ADME; details: fraction unbound in rat plasma
Method: for 2 seconds (excitation, 480 nm; emission, 530 nm), first add occurred by adding 20 µL of test compound to the cells, and the response was measured for 140 seconds. This is followed by second add; 10 µL (5X) of an EC20 concentration of ACh agonist was added to the cells, and the response of the cells was measured for 125 seconds. Immediately, the third add occurred by adding 12 ul assay buffer or 5X of an EC max concentration of ACh and the response of the cells was measured for 90 seconds. Assay buffer was added to the wells that incubated with compounds followed by EC20 concentration of ACh. […] Calcium fluorescence was recorded as fold over basal fluorescence and raw data were normalized to the maximal response to ACh agonist. Potency (EC50) and maximum response (% ACh Max) for compounds was determined using a four -parameter logist ical equation using GraphPad Prism (La Jolla, CA) or the Dotmatics software platform ( Woburn, MA) : […]
The protein binding of each compound was determined in plasma via equilibrium dialysis employing rapid equilibrium dialysis (RED) plates (ThermoFisher Scientific, Rochester, NY). […]
same manner as the plasma samples in the previously described plasma protein binding assay. Fraction unbound for both plasma and brain samples was determined using Equation 4. […]

[2] = Aqueous solubility; type: physicochemical; details: aqueous solution, aqueous buffer
[3] = Intrinsic clearance in rat hepatic microsomes, predicted hepatic clearance; type: in vitro ADME; details: predicted hepatic clearance from rat hepatic microsomes
Method: A similar approach was used to determine the degree of brain homogenate binding, which employed the same methodology and procedure with the following modifications: 1) a final compound concentration of 1 μM was used, 2) naïve rat brains were homogenized in DPBS (1:3 composition of brain: DPBS, w/w) using a Mini-Bead Beater™ machine in order to obtain brain homogenate, which was then treated in the same manner as the plasma samples in the previously described plasma protein binding assay. […]
same manner as the plasma samples in the previously described plasma protein binding assay. Fraction unbound for both plasma and brain samples was determined using Equation 4.
Equation 4 Determination of fraction unbound in plasma.
The diluted fraction unbound (fu2) in brain was calculated in the same manner by using brain homogenate rather than plasma. Undiluted fraction unbound for the brain was calculated using Equation 5 […]
Equation 5 Determination of fraction unbound in brain. […]
Human or rat hepatic microsomes (0.5 mg/mL) and 1 µM test compound were incubated in 100 mM potassium phosphate pH 7.4 buffer with 3 mM MgCl 2 at 37 °C with constant shaking. […] The in vitro half-life (1/2, min, Eq. 1), intrinsic clearance (CL int, mL/min/kg, Eq. 2), and subsequent predicted hepatic clearance (CLhep, mL/min/kg, Eq. 3) was determined employing the following equations: […]

[4] = pH 2.2, read-out: Solubility pH = 2.2
[5] = pH 6.8, read-out: Solubility pH = 6.8

SMILES	Rat fuplasma [1]	solubility [2, 4] [µM]	solubility [2, 5] [µM]	Rat CLHEP [3] [mL/min/kg]
Cn1cc(-c2ccc(Cc3cc(C(=O)N[C@H]4CCOC[C@@H]4O)nn3C3CCCC3)cc2)cn1 [17g]	0.08	84.6 (≈ 38 µg/mL)	80.7 (≈ 36.3 µg/mL)	32.8
Cn1cc(-c2ccc(Cc3cc(C(=O)N[C@H]4CCCC[C@@H]4O)nn3C3CCCC3)cc2)cn1 [17k]	0.03	10.8 (≈ 4.83 µg/mL)	< 1.12	49.5
